The compounds below were run on HCV genotype 1b replicon in Huh 7 cells (assay: HCV replicon assay (1b_Huh-Luc/Neo-ET cell line, luciferase readout)). Details: Hepatitis C virus; Table 1; genotype 1b replicon, Huh 7 cells, 72 h, luciferase; read-out: Inhibition of HCV genotype 1b.
Type: cell-based
Method: Biological activity of the compounds of the invention was determined using an HCV replicon assay. The 1b_Huh-Luc/Neo-ET cell line persistently expressing a bicistronic genotype 1b replicon in Huh 7 cells was obtained from ReBLikon GMBH. This cell line was used to test compound inhibition using luciferase enzyme activity readout as a measurement of compound inhibition of replicon levels.
On Day 1 (the day after plating), each compound is added in triplicate to the cells. Plates incubated for 72 h prior to running the luciferase assay. Enzyme activity was measured using a Bright-Glo Kit (cat. number E2620) manufactured by Promega Corporation. The following equation was used to generate a percent control value for each compound. % Control=(Average Compound Value/Average Control)*100
The EC50 value was determined using GraphPad Prism and the following equation: Y=Bottom+(Top−Bottom)/(1+10^((Log IC50−X)*HillSlope))
EC50 values of compounds are repeated several times in the replicon assay.
`COC(=O)N[C@H](C(=O)N1CCC[C@H]1c1nc(-c2ccc3cc(-c4ccc(-c5cnc([C@@H]6CCCN6C(=O)[C@H](NC(=O)OC)c6ccccc6)[nH]5)nc4)ccc3c2)c[nH]1)C(C)C` [compound 63] was tested, and the EC50 was < 1 nM.
In the case of `COC(=O)N[C@H](C(=O)N1CCC[C@H]1c1nc(-c2ccc3cc(-c4ccc(-c5cnc([C@@H]6CCCN6C(=O)[C@H](NC(=O)OC)c6ccccc6)[nH]5)cc4F)ccc3c2)c[nH]1)C(C)C` [compound 64], the EC50 is reported as < 1 nM.
In the case of `COC(=O)N[C@H](C(=O)N1CCC[C@H]1c1nc(-c2ccc3cc(-c4ccc(-c5cnc([C@@H]6CCCN6C(=O)[C@@H](NC(=O)OC)C6CCOCC6)[nH]5)cc4F)ccc3c2)c[nH]1)C(C)C` [compound 65], the EC50 is reported as < 1 nM.
With `COC(=O)N[C@H](C(=O)N1CCC[C@H]1c1nc(-c2ccc3cc(-c4ccc(-c5cnc([C@@H]6CCCN6C(=O)[C@@H](NC(=O)OC)C(C)C)[nH]5)cc4F)ccc3c2)c[nH]1)C(C)C` [compound 66] the EC50 was < 1 nM.
`COC(=O)N[C@H](C(=O)N1CCC[C@H]1c1ncc(-c2ccc(-c3ccc4cc(-c5c[nH]c([C@@H]6CCCN6C(=O)[C@H](NC(=O)OC)c6ccccc6)n5)ccc4c3)c(F)c2)[nH]1)C(C)C` [compound 67] was tested, and the EC50 was < 1 nM.
With `COC(=O)N[C@H](C(=O)N1CCC[C@H]1c1ncc(-c2ccc(-c3ccc4cc(-c5c[nH]c([C@@H]6CCCN6C(=O)[C@@H](NC(=O)OC)C6CCOCC6)n5)ccc4c3)c(F)c2)[nH]1)C(C)C` [compound 68] the EC50 was < 1 nM.
`COC(=O)N[C@H](C(=O)N1CCC[C@H]1c1nc(-c2ccc3cc(-c4ccc(-c5cnc([C@@H]6CCCN6C(=O)[C@H](NC(=O)OC)c6ccccc6)[nH]5)cc4C)ccc3c2)c[nH]1)C(C)C` [compound 69] was tested, and the EC50 was < 1 nM.
With `COC(=O)N[C@H](C(=O)N1CCC[C@H]1c1ncc(-c2ccc(-c3ccc4cc(-c5c[nH]c([C@@H]6CCCN6C(=O)[C@H](NC(=O)OC(C)(C)C)c6ccccc6)n5)ccc4n3)cn2)[nH]1)C(C)C` [compound 70] the EC50 was < 1 nM.
`COC(=O)N[C@H](C(=O)N1CCC[C@H]1c1nc(-c2cnc3cc(-c4ccc(-c5cnc([C@@H]6CCCN6C(=O)[C@H](NC(=O)OC)c6ccccc6)[nH]5)cc4)ccc3c2)c[nH]1)C1CCOCC1` [compound 71] was tested, and the EC50 was < 1 nM.
With `COC(=O)N[C@H](C(=O)N1CCC[C@H]1c1nc(-c2cnc3cc(-c4ccc(-c5cnc([C@@H]6CCCN6C(=O)[C@H](NC(=O)OC(C)(C)C)c6ccccc6)[nH]5)cc4)ccc3c2)c[nH]1)C1CCOCC1` [compound 72] the EC50 was < 1 nM.
`COC(=O)N[C@H](C(=O)N1CCC[C@H]1c1nc(-c2cnc3cc(-c4ccc(-c5cnc([C@@H]6CCCN6C(=O)[C@@H](NC(=O)OC)C6CCOCC6)[nH]5)cc4)ccc3c2)c[nH]1)C1CCOCC1` [compound 73] was tested, and the EC50 was < 1 nM.
For `COC(=O)N[C@H](C(=O)N1CCC[C@H]1c1nc(-c2cnc3cc(-c4ccc(-c5cnc([C@@H]6CCCN6C(=O)[C@@H](NC(=O)OC)C(C)C)[nH]5)cn4)ccc3c2)c[nH]1)C(C)C` [compound 74], the EC50 was < 1 nM.
`COC(=O)N[C@H](C(=O)N1CCC[C@H]1c1nc(-c2cnc3cc(-c4ccc(-c5cnc([C@@H]6CCCN6C(=O)[C@@H](NC(=O)OC)C6CCOCC6)[nH]5)cn4)ccc3c2)c[nH]1)C1CCOCC1` [compound 75] was tested, and the EC50 was < 1 nM.
With `COC(=O)N[C@H](C(=O)N1CCC[C@H]1c1nc(-c2ccc3[nH]c(-c4ccc(-c5cnc([C@@H]6CCCN6C(=O)[C@@H](NC(=O)OC)C(C)C)[nH]5)cc4)cc(=O)c3c2)c[nH]1)C(C)C` [compound 76] the EC50 was < 1 nM.
In the case of `COC(=O)N[C@@H](C(=O)N1CCC[C@H]1c1nc(-c2ccc3[nH]c(-c4ccc(-c5cnc([C@@H]6CCCN6C(=O)[C@H](NC(=O)OC)c6ccccc6)[nH]5)cc4)cc(=O)c3c2)c[nH]1)c1ccccc1` [compound 77], the EC50 is reported as 10 to 999 nM.
`COC(=O)N[C@@H](C(=O)N1CCC[C@H]1c1nc(-c2ccc3nc(-c4ccc(-c5cnc([C@@H]6CCCN6C(=O)[C@H](NC(=O)OC)c6ccccc6)[nH]5)cc4)cc(OC)c3c2)c[nH]1)c1ccccc1` [compound 78] was tested, and the EC50 was < 1 nM.
In the case of `COC(=O)N[C@H](C(=O)N1CCC[C@H]1c1nc(-c2ccc3nc(-c4ccc(-c5cnc([C@@H]6CCCN6C(=O)[C@@H](NC(=O)OC)C(C)C)[nH]5)cc4)cc(OC)c3c2)c[nH]1)C(C)C` [compound 79], the EC50 is reported as < 1 nM.
For `COC(=O)N[C@@H](C(=O)N1CCC[C@H]1c1nc(-c2cnc3cc(-c4ccc(-c5cnc([C@@H]6CCCN6C(=O)[C@H](NC(=O)OC)c6ccccc6)[nH]5)cn4)ccc3c2)c[nH]1)c1ccccc1` [compound 80], the EC50 was < 1 nM.
With `COC(=O)N[C@H](C(=O)N1CCC[C@H]1c1ncc(-c2ccc(-c3ccc4cc(-c5c[nH]c([C@@H]6CCCN6C(=O)[C@H](NC(=O)OC6CCOCC6)c6ccccc6)n5)cnc4c3)nc2)[nH]1)C(C)C` [compound 81] the EC50 was < 1 nM.
`COC(=O)N[C@H](C(=O)N1CCC[C@H]1c1ncc(-c2ccc(-c3ccc4cc(-c5c[nH]c([C@@H]6CCCN6C(=O)[C@H](NC(=O)OC(C)(C)C)c6ccccc6)n5)cnc4c3)nc2)[nH]1)C(C)C` [compound 82] was tested, and the EC50 was < 1 nM.
In the case of `COC(=O)N[C@H](C(=O)N1CCC[C@H]1c1nc(-c2ccc3cc(-c4ccc(-c5cnc([C@@H]6CCCN6C(=O)[C@@H](NC(=O)OC)C(C)C)[nH]5)nc4)ccc3c2)c[nH]1)C(C)C` [compound 83], the EC50 is reported as < 1 nM.
For `COC(=O)N[C@H](C(=O)N1CCC[C@H]1c1nc(-c2ccc3cc(-c4ccc(-c5cnc([C@@H]6CCCN6C(=O)[C@@H](NC(=O)OC)C6CCOCC6)[nH]5)nc4)ccc3c2)c[nH]1)C(C)C` [compound 84], the EC50 was < 1 nM.
For `COC(=O)N[C@H](C(=O)N1CCC[C@H]1c1nc(-c2ccc3cc(-c4ccc(-c5cnc([C@@H]6CCCN6C(=O)[C@@H](NC(=O)OC)C(C)C)[nH]5)cc4C)ccc3c2)c[nH]1)C(C)C` [compound 85], the EC50 was < 1 nM.
`COC(=O)N[C@H](C(=O)N1CCC[C@H]1c1nc(-c2ccc3cc(-c4ccc(-c5cnc([C@@H]6CCCN6C(=O)[C@@H](NC(=O)OC)C6CCOCC6)[nH]5)cc4C)ccc3c2)c[nH]1)C(C)C` [compound 86] was tested, and the EC50 was < 1 nM.
For `COC(=O)N[C@H](C(=O)N1CCC[C@H]1c1ncc(-c2ccc(-c3ccc4cc(-c5c[nH]c([C@@H]6CCCN6C(=O)[C@H](NC(=O)OC)c6ccccc6)n5)ccc4c3)c(C)c2)[nH]1)C(C)C` [compound 87], the EC50 was < 1 nM.
In the case of `COC(=O)N[C@H](C(=O)N1CCC[C@H]1c1nc(-c2cnc3cc(-c4ccc(-c5cnc([C@@H]6CCCN6C(=O)[C@H](NC(=O)OC6CCOCC6)c6ccccc6)[nH]5)cc4)ccc3c2)c[nH]1)C(C)C` [compound 88], the EC50 is reported as < 1 nM.
For `COC(=O)N[C@H](C(=O)N1CCC[C@H]1c1nc(-c2cnc3cc(-c4ccc(-c5cnc([C@@H]6CCCN6C(=O)[C@H](NC(=O)OC6CCOCC6)c6ccccc6)[nH]5)cc4)ccc3c2)c[nH]1)C1CCOCC1` [compound 89], the EC50 was < 1 nM.
In the case of `COC(=O)N[C@H](C(=O)N1CCC[C@H]1c1ncc(-c2ccc(-c3ccc4cc(-c5c[nH]c([C@@H]6CCCN6C(=O)[C@H](NC(=O)OC)c6ccccc6)n5)ccc4n3)cc2)[nH]1)C1CCOCC1` [compound 90], the EC50 is reported as < 1 nM.
With `COC(=O)N[C@H](C(=O)N1CCC[C@H]1c1ncc(-c2ccc(-c3ccc4cc(-c5c[nH]c([C@@H]6CCCN6C(=O)[C@H](NC(=O)OC(C)(C)C)c6ccccc6)n5)ccc4n3)cc2)[nH]1)C1CCOCC1` [compound 91] the EC50 was < 1 nM.
With `COC(=O)N[C@H](C(=O)N1CCC[C@H]1c1ncc(-c2ccc(-c3ccc4cc(-c5c[nH]c([C@@H]6CCCN6C(=O)[C@H](NC(=O)OC6CCOCC6)c6ccccc6)n5)ccc4n3)cc2)[nH]1)C1CCOCC1` [compound 92] the EC50 was < 1 nM.
In the case of `COC(=O)N[C@H](C(=O)N1CCC[C@H]1c1nc(-c2cnc3cc(-c4ccc(-c5cnc([C@@H]6CCCN6C(=O)[C@@H](NC(=O)OC)C(C)C)[nH]5)nc4)ccc3c2)c[nH]1)C(C)C` [compound 93], the EC50 is reported as < 1 nM.
For `COC(=O)N[C@H](C(=O)N1CCC[C@H]1c1ncc(-c2ccc(-c3ccc4cc(-c5c[nH]c([C@@H]6CCCN6C(=O)[C@H](NC(=O)OC)c6ccccc6)n5)cnc4c3)cn2)[nH]1)C(C)C` [compound 94], the EC50 was < 1 nM.
`COC(=O)N[C@H](C(=O)N1CCC[C@H]1c1ncc(-c2ccc(-c3ccc4cc(-c5c[nH]c([C@@H]6CCCN6C(=O)[C@@H](NC(=O)OC)C6CCOCC6)n5)cnc4c3)cn2)[nH]1)C(C)C` [compound 95] was tested, and the EC50 was < 1 nM.
With `COC(=O)N[C@H](C(=O)N1CCC[C@H]1c1nc(-c2ccc3nc(-c4ccc(-c5cnc([C@@H]6CCCN6C(=O)[C@@H](NC(=O)OC)C(C)C)[nH]5)cc4F)ccc3c2)c[nH]1)C(C)C` [compound 96] the EC50 was < 1 nM.
For `COC(=O)N[C@@H](C(=O)N1CCC[C@H]1c1nc(-c2ccc3nc(-c4ccc(-c5cnc([C@@H]6CCCN6C(=O)[C@H](NC(=O)OC)c6ccccc6)[nH]5)cc4F)ccc3c2)c[nH]1)c1ccccc1` [compound 97], the EC50 was < 1 nM.
With `COC(=O)N[C@H](C(=O)N1CCC[C@H]1c1nc(-c2ccc3nc(-c4ccc(-c5cnc([C@@H]6CCCN6C(=O)[C@@H](NC(=O)OC)C6CCOCC6)[nH]5)cc4F)ccc3c2)c[nH]1)C1CCOCC1` [compound 98] the EC50 was < 1 nM.
In the case of `COC(=O)N[C@H](C(=O)N1CCC[C@H]1c1nc(-c2ccc3cc(-c4ccc(-c5cnc([C@@H]6CCCN6C(=O)[C@H](NC(=O)OC)c6ccccc6)[nH]5)cc4)ccc3c2)c[nH]1)C1CCOCC1` [compound 99], the EC50 is reported as < 1 nM.
In the case of `COC(=O)N[C@H](C(=O)N1CCC[C@H]1c1nc(-c2ccc3cc(-c4ccc(-c5cnc([C@@H]6CCCN6C(=O)[C@H](NC(=O)OC)c6ccccc6)[nH]5)cc4)ncc3c2)c[nH]1)C1CCOCC1` [compound 100], the EC50 is reported as < 1 nM.
With `COC(=O)N[C@H](C(=O)N1CCC[C@H]1c1ncc(-c2ccc(-c3cc4ccc(-c5c[nH]c([C@@H]6CCCN6C(=O)[C@H](NC(=O)OC)c6ccccc6)n5)cc4cn3)cc2)[nH]1)C1CCOCC1` [compound 101] the EC50 was < 1 nM.
